Results: patent publication US7247621B2, “Antiviral phosphonate compounds and methods therefor” (Valeant Research & Development, priority 2002, dated 2007)

Tests used:
[1] = target: HCV RNA dependent RNA polymerase (RdRp), NS5B (Hepatitis C virus genotype 1b, UniProt P26663); test: Incorporation of phosphonate ATP analogs into RNA product by HCV RdRp (gel, extension of [33P]GpC); type: biochemical; conditions: for extension of [33P]GpC by HCV RdRp (incorporation into RNA product): 1 mM nucleotide, 10 μM [33P]GpC, 10 μM 5′-AAAAAAAUGC-3′ template, 2.5 μM HCV RdRp, FIG. 8
HCV RNA dependent RNA polymerase (RdRp), NS5B, sequence (P26663 2420-3010): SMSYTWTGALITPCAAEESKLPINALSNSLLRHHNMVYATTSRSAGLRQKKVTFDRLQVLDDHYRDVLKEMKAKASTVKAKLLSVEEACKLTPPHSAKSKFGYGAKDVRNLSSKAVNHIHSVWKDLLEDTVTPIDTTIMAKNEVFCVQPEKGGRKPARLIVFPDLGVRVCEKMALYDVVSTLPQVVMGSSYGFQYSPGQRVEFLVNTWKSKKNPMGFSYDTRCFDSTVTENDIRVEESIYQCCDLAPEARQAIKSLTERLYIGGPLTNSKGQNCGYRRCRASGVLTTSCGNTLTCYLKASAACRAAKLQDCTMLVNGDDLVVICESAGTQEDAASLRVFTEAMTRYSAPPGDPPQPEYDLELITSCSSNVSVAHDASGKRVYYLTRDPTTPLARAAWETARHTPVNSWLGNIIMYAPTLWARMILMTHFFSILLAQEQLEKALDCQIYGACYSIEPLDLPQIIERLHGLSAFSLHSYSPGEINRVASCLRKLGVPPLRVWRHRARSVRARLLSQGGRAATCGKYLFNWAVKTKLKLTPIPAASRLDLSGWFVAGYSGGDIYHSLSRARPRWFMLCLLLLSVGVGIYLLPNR
Procedure: Among other nucleotide analogs (data not shown), two exemplary phosphonate analogs of ATP, 5′-deoxy-5′-phosphonate (5′d-ATP) and 5′-deoxy-5′-methylene phosphonate (5′d-CH2-ATP), were tested for inhibition and/or incorporation into an RNA product by the HCV RNA dependent RNA polymerase (RdRp). The incorporation reactions included 1 mM of the phosphonate analog or ATP, 10 μM of [^33P]GpC, 10 μM of 5′-AAAAAAAUGC-3′, and 2.5 μM of HCV RdRp in a buffer that contained 50 mM Hepes, pH 7.3, 10 mM DTT, and 5 mM MgCl2. The RNA products were resolved on a 25% polyacrylamide-7M urea-TBE gel. […] The incorporation of 5′d-CH2-ATP is less efficient than that of ATP by 10-fold. To look for further elongation after incorporation of ATP or 5′d-CH2-ATP, the same experiment was performed in the presence of additional UTP (1 mM).
Exemplary results of such tests are depicted in the autoradiograph of FIG. 8 showing RNA products from incorporations of ATP and phosphonate analogs of ATP by HCV RdRp. Each reaction contained 2.5 μM of RdRp, 10 μM of [^33P]GpC, 10 μM template, and the following nucleotides (1 mM): lane 1, none; lane 2, ATP; lane 3,5′-deoxy-5′-phosphonate ATP; lane 4,5′-deoxy-5′-methylene phosphonate ATP; lane 5, ATP and UTP; lane 6,5′-deoxy-5′-phosphonate ATP and UTP; lane 7,5′-deoxy-5′-methylene phosphonate ATP and UTP. The reaction products were resolved on a 25% polyacrylamide-7 M urea-TBE gel and the gel was scanned on a PhosporImager.

E. coli RNA polymerase = E. coli RNA polymerase (Escherichia coli, UniProt P0A8T7+P0A8V2); conditions: Savochkina et al. Mol. Biol. (Mosk) 1989; cited from earlier work
E. coli RNA polymerase, sequence (P0A8T7 whole entry): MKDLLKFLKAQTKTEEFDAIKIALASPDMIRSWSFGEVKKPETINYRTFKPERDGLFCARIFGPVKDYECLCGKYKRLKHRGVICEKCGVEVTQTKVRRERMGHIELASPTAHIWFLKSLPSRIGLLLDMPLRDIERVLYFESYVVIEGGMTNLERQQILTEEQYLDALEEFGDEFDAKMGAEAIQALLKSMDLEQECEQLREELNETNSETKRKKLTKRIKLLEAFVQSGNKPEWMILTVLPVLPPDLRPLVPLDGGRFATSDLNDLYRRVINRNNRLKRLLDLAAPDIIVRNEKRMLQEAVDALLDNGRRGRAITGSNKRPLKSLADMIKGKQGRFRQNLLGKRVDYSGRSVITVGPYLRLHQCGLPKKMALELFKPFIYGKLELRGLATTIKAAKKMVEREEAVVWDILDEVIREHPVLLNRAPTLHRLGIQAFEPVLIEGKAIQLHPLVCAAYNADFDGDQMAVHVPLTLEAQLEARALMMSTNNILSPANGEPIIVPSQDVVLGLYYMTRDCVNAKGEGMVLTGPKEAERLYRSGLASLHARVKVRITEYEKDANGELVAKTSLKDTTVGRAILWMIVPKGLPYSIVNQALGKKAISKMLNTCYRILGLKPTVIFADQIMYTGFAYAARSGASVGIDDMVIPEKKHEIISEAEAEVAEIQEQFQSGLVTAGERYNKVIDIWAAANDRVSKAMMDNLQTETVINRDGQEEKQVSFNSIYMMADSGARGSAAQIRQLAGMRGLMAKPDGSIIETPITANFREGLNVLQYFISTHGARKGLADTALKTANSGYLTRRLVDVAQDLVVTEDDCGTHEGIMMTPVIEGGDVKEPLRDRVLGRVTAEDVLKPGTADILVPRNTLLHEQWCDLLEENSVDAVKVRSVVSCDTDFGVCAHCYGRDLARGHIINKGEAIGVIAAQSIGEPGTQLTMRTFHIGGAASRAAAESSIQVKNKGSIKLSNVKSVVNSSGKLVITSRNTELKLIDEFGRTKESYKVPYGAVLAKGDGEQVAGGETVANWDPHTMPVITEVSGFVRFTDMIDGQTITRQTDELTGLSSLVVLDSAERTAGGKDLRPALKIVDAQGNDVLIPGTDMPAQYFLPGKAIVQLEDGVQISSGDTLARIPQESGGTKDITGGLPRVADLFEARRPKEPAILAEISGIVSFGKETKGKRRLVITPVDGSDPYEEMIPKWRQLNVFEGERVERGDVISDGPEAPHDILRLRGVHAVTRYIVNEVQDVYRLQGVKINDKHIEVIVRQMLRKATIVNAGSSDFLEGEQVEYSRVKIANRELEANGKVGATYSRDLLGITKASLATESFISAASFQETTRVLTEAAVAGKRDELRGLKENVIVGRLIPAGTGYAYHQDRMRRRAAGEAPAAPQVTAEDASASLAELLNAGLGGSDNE
E. coli RNA polymerase, sequence (P0A8V2 whole entry): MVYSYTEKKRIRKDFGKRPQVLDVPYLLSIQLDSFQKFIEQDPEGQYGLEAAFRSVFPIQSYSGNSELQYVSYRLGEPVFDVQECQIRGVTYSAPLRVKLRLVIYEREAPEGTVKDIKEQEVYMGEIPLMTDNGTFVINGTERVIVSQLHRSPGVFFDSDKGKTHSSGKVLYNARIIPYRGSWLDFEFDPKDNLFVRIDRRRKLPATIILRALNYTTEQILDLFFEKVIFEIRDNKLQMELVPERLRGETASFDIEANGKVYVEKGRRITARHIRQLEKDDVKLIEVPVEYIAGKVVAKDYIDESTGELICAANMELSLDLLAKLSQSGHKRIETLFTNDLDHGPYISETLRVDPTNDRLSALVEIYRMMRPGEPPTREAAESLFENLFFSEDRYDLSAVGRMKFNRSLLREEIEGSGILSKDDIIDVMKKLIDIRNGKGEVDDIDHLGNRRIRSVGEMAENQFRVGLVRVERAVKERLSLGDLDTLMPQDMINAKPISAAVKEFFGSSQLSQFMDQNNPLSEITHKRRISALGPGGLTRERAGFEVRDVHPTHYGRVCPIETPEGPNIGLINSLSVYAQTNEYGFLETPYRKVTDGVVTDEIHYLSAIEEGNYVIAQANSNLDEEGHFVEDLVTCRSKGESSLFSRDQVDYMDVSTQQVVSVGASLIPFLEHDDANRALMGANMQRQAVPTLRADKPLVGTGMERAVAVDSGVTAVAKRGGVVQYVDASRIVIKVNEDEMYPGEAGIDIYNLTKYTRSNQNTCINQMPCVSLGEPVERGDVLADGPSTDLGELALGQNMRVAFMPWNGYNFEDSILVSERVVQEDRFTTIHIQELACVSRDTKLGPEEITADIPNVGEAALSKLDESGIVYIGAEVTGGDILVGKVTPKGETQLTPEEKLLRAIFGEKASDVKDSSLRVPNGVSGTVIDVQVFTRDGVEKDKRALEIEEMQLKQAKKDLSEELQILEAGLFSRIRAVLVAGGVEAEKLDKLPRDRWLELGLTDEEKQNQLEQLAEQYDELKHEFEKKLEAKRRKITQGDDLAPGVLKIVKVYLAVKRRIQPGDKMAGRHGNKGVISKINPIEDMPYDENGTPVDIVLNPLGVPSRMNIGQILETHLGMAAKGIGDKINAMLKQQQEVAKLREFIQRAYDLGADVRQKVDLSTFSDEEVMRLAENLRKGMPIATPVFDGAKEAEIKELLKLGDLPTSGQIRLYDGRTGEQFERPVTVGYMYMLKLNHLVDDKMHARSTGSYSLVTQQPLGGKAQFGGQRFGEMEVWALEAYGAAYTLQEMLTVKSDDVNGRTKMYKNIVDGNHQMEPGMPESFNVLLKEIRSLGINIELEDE
E. coli RNA polymerase, sequence (P0A7Z4 whole entry, further chain): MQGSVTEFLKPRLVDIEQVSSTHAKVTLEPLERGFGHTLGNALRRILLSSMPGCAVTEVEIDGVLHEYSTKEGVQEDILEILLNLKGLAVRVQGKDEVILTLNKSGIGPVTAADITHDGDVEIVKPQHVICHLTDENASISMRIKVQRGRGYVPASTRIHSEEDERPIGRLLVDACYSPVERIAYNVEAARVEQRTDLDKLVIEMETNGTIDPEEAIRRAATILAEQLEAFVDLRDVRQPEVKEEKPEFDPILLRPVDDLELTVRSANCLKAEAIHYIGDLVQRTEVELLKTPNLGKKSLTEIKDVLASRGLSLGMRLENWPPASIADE
E. coli RNA polymerase, sequence (P0A800 whole entry, further chain): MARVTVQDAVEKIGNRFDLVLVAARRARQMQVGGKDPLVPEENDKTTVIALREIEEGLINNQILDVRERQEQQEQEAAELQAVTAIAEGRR

SMILES	extension of [33P]GpC by HCV RdRp (incorporation into RNA product) [1]	further elongation by UTP after incorporation ([1]; same experiment with additional UTP (1 mM))	effect on RNA synthesis by E. coli RNA polymerase (E. coli RNA polymerase)
Nc1ncnc2c1ncn2[C@@H]1O[C@H](CP(=O)(O)OP(=O)(O)OP(=O)(O)O)[C@@H](O)[C@H]1O [5′d-ATP]	no extension	–	–
Nc1ncnc2c1ncn2[C@@H]1O[C@H](COP(=O)(O)OP(=O)(O)OP(=O)(O)O)[C@@H](O)[C@H]1O [ATP]	extension of [^33P]GpC by HCV RdRp was observed	Elongation products by UTP were seen	–
O=c1ccn([C@@H]2O[C@@H](CP(=O)(O)OP(=O)(O)OP(=O)(O)O)[C@@H](O)[C@H]2O)c(=O)[nH]1 [Phosphonate (5-deoxy) UTP]	–	–	pseudoterminator of RNA synthesis
